Values of other authors in patent US8591958B2, “Concentrated hydrogen peroxide disinfecting solutions” (priority 2008, dated 2013).
Where two headings read alike, the source gives them in different places.

System: Staphylococcus aureus

For `OO` [hydrogen peroxide], the “time required to disinfect surfaces contaminated with Staphylococcus aureus” value (0.1% w/w aqueous solution) is listed as “about 60 minutes” and the “time required to disinfect surfaces contaminated with Staphylococcus aureus” value (25.8% w/w aqueous solution, same test conditions) is listed as “about 20 seconds”.
